Usually bioavailability stands for dose-corrected exposure relative to a reference, in per cent. Broadly, the half-life is how long it takes for the measured level to halve. Read a low half-life as fast loss.

The nature of data set [1]: in vivo. Particulars: rat, po.
The nature of data set [2]: in vivo. Particulars: rat.

Regarding `Cn1nc(CC(CC(=O)O)c2ccc3c(c2)OCO3)cc1OCCc1ccc2c(n1)NCCC2` (configuration not stated), the bioavailability in data set [1] was 95%. In data set [2], the half-life is 4.9 h.

The values are drawn from ChEMBL document CHEMBL1148501, “Synthesis of pyrazoles and isoxazoles as potent alpha(v)beta3 receptor antagonists” (Bioorg Med Chem Lett, 2006).
